pKi: −log10 of the molar value.
The compounds below were run against Cannabinoid receptor 1 (Rattus norvegicus, UniProt P20272).
Type: cell membranes, Brain, Brain membranes
Description: Inhibition of [3H]CP-55940 binding to cannabinoid receptor 1 in rat brain membranes.

Cannabinoid receptor 1, sequence (P20272 whole entry): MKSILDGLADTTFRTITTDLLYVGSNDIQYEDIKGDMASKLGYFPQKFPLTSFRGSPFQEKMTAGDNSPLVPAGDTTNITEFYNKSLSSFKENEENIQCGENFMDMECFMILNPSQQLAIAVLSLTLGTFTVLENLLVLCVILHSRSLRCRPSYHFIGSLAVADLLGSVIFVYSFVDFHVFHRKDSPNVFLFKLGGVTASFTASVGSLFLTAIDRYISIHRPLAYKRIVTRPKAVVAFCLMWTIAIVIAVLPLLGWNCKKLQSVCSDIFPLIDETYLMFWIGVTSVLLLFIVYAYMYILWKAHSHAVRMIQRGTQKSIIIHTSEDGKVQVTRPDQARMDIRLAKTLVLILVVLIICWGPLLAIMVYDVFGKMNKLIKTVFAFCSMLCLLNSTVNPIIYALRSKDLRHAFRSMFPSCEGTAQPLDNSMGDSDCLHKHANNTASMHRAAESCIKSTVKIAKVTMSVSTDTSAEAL

Compared with `Cc1c(COCCN2CCCCC2)nn(-c2ccc(Cl)cc2Cl)c1-c1ccc(Cl)cc1`, `Cc1c(COCC2CCCCC2)nn(-c2ccc(Cl)cc2Cl)c1-c1ccc(Cl)cc1` is 0.37 log units higher in pKi: 6.63 for the first, 7.00 for the second.

Going from `CCCCn1nc(C(=O)NN2CCCCC2)c(C)c1-c1ccccc1` to `CCCCCn1nc(C(=O)NN2CCCCC2)c(C)c1-c1ccccc1`, the pKi rises from 6.73 to 7.64 (0.91 log units). The second binds more tightly here.

`CCCCCNC(=O)c1nn(-c2ccc(Cl)cc2Cl)c(-c2ccc(Cl)cc2)c1C` and `CCCCCCCNC(=O)c1nn(-c2ccc(Cl)cc2Cl)c(-c2ccc(Cl)cc2)c1C` are the same in pKi: 8.52 for the first, 8.52 for the second.

Compared with `CCCCc1ccc(-n2nc(C(=O)NN3CCCCC3)c(C)c2-c2ccc(Cl)cc2)cc1`, `CCCCCc1ccc(-n2nc(C(=O)NN3CCCCC3)c(C)c2-c2ccc(Cl)cc2)cc1` is 0.72 log units lower in pKi: 6.59 for the first, 5.87 for the second.

First: CCCCCn1nc(C(=O)NN2CCCCC2)c(C)c1-c1ccc(Br)cc1
Second: CCCCCCn1nc(C(=O)NN2CCCCC2)c(C)c1-c1ccccc1
The pKi of the first is 0.48 log units lower: 7.20 for the first, 7.68 for the second. The second binds more tightly here.

Going from `Cc1c(C(=O)N(C)C2CCCCC2)nn(-c2ccc(Cl)cc2Cl)c1-c1ccc(Br)cc1` to `Cc1c(C(=O)NC2CCCCC2)nn(-c2ccc(Cl)cc2Cl)c1-c1ccc(Br)cc1`, the pKi rises from 7.25 to 7.82 (0.57 log units). The second binds more tightly here.

First: Cc1c(C(=O)NCCO)nn(-c2ccc(Cl)cc2Cl)c1-c1ccc(Br)cc1
Second: Cc1c(C(=O)NN2CCCC2)nn(-c2ccc(Cl)cc2Cl)c1-c1ccc(Br)cc1
The pKi of the first is 0.99 log units lower: 6.78 for the first, 7.77 for the second.

`Cc1c(C(=O)NN2CCCCC2)nn(-c2ccc(N)cc2)c1-c1ccc(Cl)cc1` and `Cc1c(C(=O)NN2CCCCC2)nn(-c2ccc(Cl)cc2)c1-c1ccc(Cl)cc1` are within 0.2 log units of each other in pKi: 7.14 for the first, 7.26 for the second.

Compared with `Cc1c(COCc2ccc(F)cc2)nn(-c2ccc(Cl)cc2Cl)c1-c1ccc(Cl)cc1`, `CCCCCC(=O)c1nn(-c2ccc(Cl)cc2Cl)c(-c2ccc(Cl)cc2)c1C` is 0.62 log units lower in pKi: 8.22 for the first, 7.60 for the second. The first binds more tightly here.

Compared with `CC(=O)c1ccc(-c2c(C#N)c(C(=O)Nc3ccccc3)nn2-c2ccccc2Cl)cc1`, `Cc1c(C(=O)NN2CCCCC2)nn(-c2ccc([N+](=O)[O-])cc2)c1-c1ccc(Cl)cc1` is 1.19 log units lower in pKi: 8.15 for the first, 6.96 for the second. The first binds more tightly here.

First: CCCCCCCn1nc(C(=O)NN2CCCCC2)c(C)c1-c1ccccc1
Second: Cc1c(C(=O)NN2CCCCC2)nn(C2CCCCC2)c1-c1ccccc1
The pKi of the first is 0.92 log units higher: 7.33 for the first, 6.41 for the second.

Compared with `CCCCCc1ccc(-c2c(C)c(C(=O)NN3CCCCC3)nn2-c2ccc(Cl)cc2Cl)cc1`, `Cc1c(C(=O)NN2CCOCC2)nn(-c2ccc(Cl)cc2Cl)c1-c1ccc(Br)cc1` is 1.28 log units lower in pKi: 9.00 for the first, 7.72 for the second.

First: CCC(C)c1ccc(-n2nc(C(=O)NN3CCCCC3)c(C)c2-c2ccc(Cl)cc2)cc1 (configuration not stated)
Second: O=C(NN1CCCCC1)c1nn(-c2ccc(Cl)cc2Cl)c2c(Cl)cccc12
The pKi of the first is 1.30 log units higher: 7.43 for the first, 6.13 for the second.

`O=C(NN1CCCCC1)c1nn(-c2ccc(Cl)cc2Cl)c2c([N+](=O)[O-])cccc12` was tested, and the pKi was 6.69.

From ChEMBL document CHEMBL1135902, “Molecular interaction of the antagonist N-(piperidin-1-yl)-5-(4-chlorophenyl)-1- (2,4-dichlorophenyl)-4-methyl-1H-pyrazole-3-carboxamide with the CB1 cannabinoid receptor” (J Med Chem, 2002)
